Experimental data: ChEMBL document CHEMBL4428126, “Identification and Structural Characterization of Three New Metabolites of Bupropion in Humans” (ACS Med Chem Lett, 2016)

What was measured:
[1] = Drug level in human liver microsome treated with bupropion at 10 uM preincubated for 5 mins followed by addition of NADPH measured after 20 mins by LC-MS/MS analysis; type: ADME; conditions: microsomes
[2] = Drug metabolism in human liver cytosol assessed as formation of metabolites with m/z transitions of 258 to 184 at 10 uM preincubated for 5 mins followed by addition of NADPH measured after 20 mins by LC-MS/MS analysis; type: ADME, subcellular
[3] = Drug metabolism in human liver microsomes assessed as formation of metabolites with m/z transitions of 258 to 184 at 10 uM preincubated for 5 mins followed by addition of NADPH measured after 20 mins by LC-MS/MS analysis; type: ADME, Microsome
Cytochrome P450 2C19 [4] = target: T1, Cytochrome P450 2C19 (Homo sapiens, UniProt P33261); experiment: Drug metabolism assessed as recombinant CYP2C19 (unknown origin)-mediated erythro-4'-OH-bupropion formation at 1 uM preincubated for 5 mins followed by addition of NADPH measured after 20 mins by LC-MS/MS method; type: ADME; conditions: recombinant enzyme
T1 sequence (P33261 whole entry): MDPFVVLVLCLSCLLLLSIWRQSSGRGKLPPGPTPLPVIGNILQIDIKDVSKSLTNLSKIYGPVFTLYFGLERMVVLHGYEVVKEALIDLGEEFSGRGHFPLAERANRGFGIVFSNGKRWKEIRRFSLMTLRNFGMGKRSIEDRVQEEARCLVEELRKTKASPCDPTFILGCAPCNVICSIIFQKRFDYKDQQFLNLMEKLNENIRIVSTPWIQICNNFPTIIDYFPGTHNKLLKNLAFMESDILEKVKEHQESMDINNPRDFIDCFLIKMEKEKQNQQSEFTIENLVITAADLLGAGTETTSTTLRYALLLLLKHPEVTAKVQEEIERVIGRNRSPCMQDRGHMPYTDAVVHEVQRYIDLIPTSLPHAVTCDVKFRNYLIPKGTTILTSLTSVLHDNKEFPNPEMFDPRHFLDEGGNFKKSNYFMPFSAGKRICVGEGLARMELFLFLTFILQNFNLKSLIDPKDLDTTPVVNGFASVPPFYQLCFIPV

[5] = Drug recovery in urine of human treated with bupropion assessed as free drug level administered orally measured over steady state dosing interval; type: ADME, tissue-based; conditions: po
[6] = Drug recovery in urine of human treated with bupropion assessed as conjugated drug level administered orally measured over steady state dosing interval; type: ADME; conditions: po
Cytochrome P450 2C19 [7] = target: T1, Cytochrome P450 2C19; experiment: Drug metabolism assessed as recombinant CYP2C19 (unknown origin)-mediated threo-4'-OH-bupropion formation at 1 uM preincubated for 5 mins followed by addition of NADPH measured after 20 mins by LC-MS/MS method; type: ADME; conditions: recombinant enzyme
[8] = Drug metabolism in human liver microsomes assessed as hydroxylation of t-butyl group preincubated for 5 mins followed by addition of NADPH measured after 20 mins by LC-MS/MS analysis; type: ADME, Microsome
[9] = Drug excretion in acid deconjugated urine of human subjects treated with 300 mg/day bupropion by LC/MS/MS analysis; type: ADME, tissue-based
[10] = Drug level in human liver microsomes treated with 10 uM threohydrobupropion assessed as compound formation with m/z transitions of 258 to 184 preincubated for 5 mins followed by addition of NADPH measured after 20 mins by LC-MS/MS analysis; type: ADME, Microsome
[11] = Drug level in human liver microsomes treated with threohydrobupropion-d9 assessed as hydroxylation of t-butyl group preincubated for 5 mins followed by addition of NADPH measured after 20 mins by LC-MS/MS analysis; type: ADME, Microsome
[12] = Drug metabolism in acid deconjugated urine of human subjects assessed as metabolite M4 formation at 300 mg/day by LC/MS/MS analysis; type: ADME, tissue-based
[13] = Drug level in plasma of human subjects assessed as compound formation treated with 300 mg/day bupropion by LC/MS/MS analysis; type: ADME, cell-free
[14] = Drug level in human liver microsomes treated with 10 uM erythrohydrobupropion assessed as compound formation with m/z transitions of 258 to 184 preincubated for 5 mins followed by addition of NADPH measured after 20 mins by LC-MS/MS analysis; type: ADME, Microsome
[15] = Drug recovery in human urine administered as single oral dosage; type: ADME, tissue-based; conditions: read-out: Drug recovery
[16] = Drug recovery in human urine assessed as OH-bupropion administered as single oral dosage; type: ADME, tissue-based
[17] = Drug recovery in human urine assessed as erythrohydrobupropion administered as single oral dosage; type: ADME, tissue-based
[18] = Drug recovery in human urine assessed as threohydrobupropion administered as single oral dosage; type: ADME, tissue-based
[19] = Drug excretion in human urine assessed as m-chlorohippuric acid administered as single oral dosage; type: ADME, tissue-based
[20] = Drug excretion in human urine assessed as polar metabolites formation administered as single oral dosage; type: ADME, tissue-based
[21] = Drug metabolism in human liver microsomes assessed as NADPH-dependant 4'-OH-bupropion formation at 10 uM preincubated for 5 mins followed by addition of NADPH measured after 20 mins by LC-MS/MS analysis; type: ADME, Microsome
[22] = Drug metabolism in human liver microsomes assessed as NADPH-dependant metabolite formation at 10 uM preincubated for 5 mins followed by addition of NADPH measured after 20 mins by LC-MS/MS analysis; type: ADME, Microsome
[23] = Drug metabolism in human plasma assessed as 4'-OH-bupropion formation at 300 mg/day by LC/MS/MS analysis; type: ADME, cell-free
[24] = Drug excretion in human urine assessed as 4'-OH-bupropion formation at 300 mg/day by LC/MS/MS analysis; type: ADME, tissue-based
[25] = Drug metabolism in human plasma assessed as metabolite M2 formation at 300 mg/day by LC/MS/MS analysis; type: ADME, cell-free
[26] = Drug metabolism in human urine assessed as metabolite M2 formation at 300 mg/day by LC/MS/MS analysis-MS analysis; type: ADME, tissue-based
[27] = Drug metabolism in acid deconjugated urine of human subjects assessed as metabolite M3 formation at 300 mg/day by LC/MS/MS analysis; type: ADME, tissue-based
[28] = Plasma concentration in human assessed as 4'-OH-bupropion at 300 mg/day by LC/MS/MS analysis; type: ADME, cell-free
[29] = Plasma concentration in human assessed as threo-4'-OH-bupropion at 300 mg/day by LC/MS/MS analysis; type: ADME, cell-free
[30] = Plasma concentration in human assessed as erythro-4'-OH-bupropion at 300 mg/day by LC/MS/MS analysis; type: ADME, cell-free
[31] = Drug recovery in human urine assessed as free and conjugated drug level administered orally measured over steady state dosing interval; type: ADME, tissue-based; conditions: po
[32] = Drug recovery in human urine assessed as free drug level administered orally measured over steady state dosing interval; type: ADME, tissue-based; conditions: po
[33] = Drug recovery in human urine assessed as conjugated drug level administered orally measured over steady state dosing interval; type: ADME, tissue-based; conditions: po
Cytochrome P450 2C19 [34] = target: T1, Cytochrome P450 2C19; experiment: Drug metabolism assessed as recombinant CYP2C19 (unknown origin)-mediated 4'-OH-bupropion formation at 1 uM preincubated for 5 mins followed by addition of NADPH measured after 20 mins by LC-MS/MS method; type: ADME; conditions: recombinant enzyme
[35] = Drug metabolism in acid deconjugated urine of human subjects assessed as metabolite M6 formation at 300 mg/day by LC/MS/MS analysis; type: ADME, tissue-based
[36] = Drug metabolism in acid deconjugated urine of human subjects assessed as metabolite M7 formation at 300 mg/day by LC/MS/MS analysis; type: ADME, tissue-based
[37] = Drug metabolism in plasma of human subjects assessed as metabolite M4 formation at 300 mg/day by LC/MS/MS analysis; type: ADME, cell-free
[38] = Drug metabolism in plasma of human subjects assessed as metabolite M6 formation at 300 mg/day by LC/MS/MS analysis; type: ADME, cell-free
[39] = Drug metabolism in plasma of human subjects assessed as metabolite M7 formation at 300 mg/day by LC/MS/MS analysis; type: ADME, cell-free

## C[C@@H](NC(C)(C)C)[C@H](O)c1cccc(Cl)c1
[1]
  Drug metabolism: Metabolite_Detected
[2]
  Drug metabolism: Metabolite_Notdetected
[3]
  Drug metabolism: Metabolite_Detected
Cytochrome P450 2C19 [4]
  Drug metabolism: Metabolite_Detected
[5]
  Drug recovery: 63 µmol
[6]
  Drug recovery: 22 µmol

## C[C@@H](NC(C)(C)C)[C@@H](O)c1cccc(Cl)c1
[1]
  Drug metabolism: Metabolite_Detected
[2]
  Drug metabolism: Metabolite_Notdetected
[3]
  Drug metabolism: Metabolite_Detected
Cytochrome P450 2C19 [7]
  Drug metabolism: Metabolite_Detected
[5]
  Drug recovery: 610 µmol
[6]
  Drug recovery: 250 µmol

## [2H]C([2H])([2H])C(N[C@H](C)[C@@H](O)c1cccc(Cl)c1)(C([2H])([2H])[2H])C([2H])([2H])[2H]
[8]
  Drug metabolism: Metabolite_Notdetected

## C[C@@H](NC(C)(C)C)[C@H](O)c1ccc(O)c(Cl)c1
[3]
  Drug metabolism: Metabolite_Detected
[9]
  Drug excretion: Metabolite_Detected
[10]
  Drug metabolism: Metabolite_Detected
[11]
  Drug metabolism: Metabolite_Detected
[12]
  Drug metabolism: Metabolite_Detected
[13]
  Drug metabolism: Metabolite_Detected
[5]
  Drug recovery: 3.3 µmol
[6]
  Drug recovery: 160 µmol

## CC(NC(C)(C)C)C(=O)c1ccc(O)c(Cl)c1 (stereo not given)
[1]
  Drug metabolism: Metabolite_Detected
[2]
  Drug metabolism: Metabolite_Notdetected
[9]
  Drug excretion: Metabolite_Detected
[5]
  Drug recovery: 0.3 µmol
[6]
  Drug recovery: 29 µmol

## CC1NC(C)(C)COC1(O)c1cccc(Cl)c1 (stereo not given)
[1]
  Drug metabolism: Metabolite_Detected
[2]
  Drug metabolism: Metabolite_Notdetected
[3]
  Drug metabolism: Metabolite_Notdetected
[5]
  Drug recovery: 77 µmol
[6]
  Drug recovery: 110 µmol

## O=C(O)CNC(=O)c1cccc(Cl)c1
[5]
  Drug recovery: 167 µmol

## C[C@@H](NC(C)(C)C)[C@@H](O)c1ccc(O)c(Cl)c1 (relative stereo)
[14]
  Drug metabolism: Metabolite_Detected
[3]
  Drug metabolism: Metabolite_Detected
[9]
  Drug excretion: Metabolite_Detected
[12]
  Drug metabolism: Metabolite_Detected
[13]
  Drug metabolism: Metabolite_Detected
[5]
  Drug recovery: 0.9 µmol
[6]
  Drug recovery: 200 µmol

## CC(NC(C)(C)C)C(=O)c1cccc(Cl)c1 (stereo not given) [BUPROPION]
[15]
  dose excreted: 23%
[16]
  Drug recovery: 23 %ID
[17]
  Drug recovery: 23 %ID
[18]
  Drug recovery: 23 %ID
[19]
  Drug excretion: 22 %ID
[20]
  Drug excretion: 36 %ID
[21]
  Drug metabolism: Metabolite_Detected
[22]
  Drug metabolism: Metabolite_Detected
[23]
  Drug metabolism: Metabolite_Detected
[24]
  Drug excretion: Metabolite_Detected
[25]
  Drug metabolism: Metabolite_Notdetected
[26]
  Drug metabolism: Metabolite_Notdetected
[27]
  Drug metabolism: Metabolite_Detected
[28]
  concentration: 0.012 µM
[29]
  concentration: 0.007 µM
[30]
  concentration: 0.033 µM
[31]
  Drug recovery: 1.4 %ID
[32]
  Drug recovery: 59 µmol
[33]
  Drug recovery: 6.5 µmol
Cytochrome P450 2C19 [34]
  Drug metabolism: Metabolite_Detected
[12]
  Drug metabolism: Metabolite_Detected
[35]
  Drug metabolism: Metabolite_Detected
[36]
  Drug metabolism: Metabolite_Detected
[37]
  Drug metabolism: Metabolite_Detected
[38]
  Drug metabolism: Metabolite_Detected
[39]
  Drug metabolism: Metabolite_Detected
